Measurements as given in patent publication US5593970A, “Heterocyclic anthracycline analogs” (priority 1994, dated 1997).
Entries after “also recorded” stand apart in the source; their conditions may differ. Each block holds one molecule with its values, some of them ahead of it.

Tests used:
SKOV3 = assay: Microculture tetrazolium assay; assay type: cell-based; conditions: Homo sapiens, SK-OV-3, SKOV3; read-out: IC50
LS180 = assay: Soft agar colony formation disk diffusion assay; assay type: cell-based, human
Procedure, shortened: (§1)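 Cells were suspended at 10^4 to 2×10^5 per dish in 0.4% Noble agar in RPMI-1066 over a 0.8% agar/Tryptic Soy Broth bottom layer. Compound in DMSO/water was dried onto a 6.5 mm paper disk placed on the upper layer. Read-out was the zone of inhibition from disk edge to nearest colonies (>50 cells), measured by ocular micrometer.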

MCF7/ADR = assay: Soft agar colony formation disk diffusion assay; assay type: cell-based, human
Procedure, shortened: as §1

MCF7 = assay: Soft agar colony formation disk diffusion assay; assay type: cell-based, human
Procedure, shortened: as §1

T47D = assay: Microculture tetrazolium assay; assay type: cell-based; conditions: Homo sapiens, read-out: IC50
tumor cell lines = assay: Tumor clonogenic assay, overall; assay type: cell-based
From the text: For the IN VITRO test, we chose a tumor clonogenic assay which measures the ability of tumoral cells to form colonies (multicellular growth units) as a result of cell division in semisolid agar support (2,3). A more elaborate version of this fundamental assay, the soft agar colony formation disk diffusion assay was used. This assay defines the relative activity of one particular drug versus a tumoral cell line type. The effect of the test drug against tumoral cells could be measured by its inhibitory capacity against colony formation after the delivery of the compound, in different concentrations on an filter disk(4).
A modified technique of this assay was used in order to investigate the antiproliferative activity of candidate compounds. Tumoral cells from solid tumors and ascitic lines were plated separately in a two layer agar matrix. Cell lines to be tested were suspended in an upper layer of 0.4% Noble agar (Difco#00142-01) in RPMI-1066 (Gibco#3201875) at a yield varying between 10^4 to 2×10^5 cells per 60 mm Petri dish. Plating efficiency was determined for each line in order to achieve an optimal number of colonies per dish. Plates were examined before drug administration to confirm a uniform dispersion of single cells. The bottom layer consisted of 0.8% Noble agar, 0.8% Tryptic Soy Broth (difco#0037001)in CMRL-1066/Fischer's. The bottom layers were used within 2 and 9 days of preparation. Plated dishes (bottom layer of agar, upper layer of cells and administered drug were incubated in humidified atmosphere at 37° C., 5% CO2 for 10-20 days depending upon the time necessary to observe adequate colonies (defined as a cell aggregate of more than 50 cells) both control and drug inhibited. Drugs were administered on a paper filter disk (Whatman No. 1) of 6.5 mm diameter placed on the upper layer at 1/3 distance from the edge of the dish. The anti-clonogenic activity of the compounds was measured as the zone of inhibition from the disk edge to the most proximal colonies. This zone of inhibition was checked on an inverted microscope (40×) and was measured with a micrometer mounted in the eyepiece. The ocular micrometer was calibrated with a stage micrometer set for a particular combination of ocular and objective lenses.
200 units of activity are equivalent to 6.5 mm distance from the disk edge to the first colonies (5). […] We made a modification of the initial technique by not plating a solid tumor and a leukemia simultaneously in the same Petri dish. Anti-clonogenic tests performed on leukemia cell line have helped in the discovery of the majority of current clinically used cytostatic drugs. Our tests on solid tumor lines (animal or human) may help define active compounds with solid tumor specificity. This specific activity would be indicated by a higher level of cloning inhibition in solid tumors versus leukemias (6).

SMILES: CC(=O)Oc1c2c(c(O)c3ccccc13)C(=O)C1=C(C2=O)C(O)OC(C(C)=O)C1 (centres unmarked) [BCH-704, Methyl(11-acetoxy-1,6-dihydroxy-5,12-dioxo-3,4,5,12-tetrahydroanthraceno[2,3-c]pyran-3-yl)ketone]
IC50 (SKOV3): 16.4 µM
zone of inhibition (LS180; 10 μg/DISK): 38.3 ± 2.4 Zone Units
zone of inhibition (LS180; 100 μg/DISK): 131.1 ± 31.1 Zone Units
zone of inhibition (MCF7/ADR; 10 μg/DISK): 122.0 ± 25.8 Zone Units
zone of inhibition (MCF7/ADR; 100 μg/DISK): 323.0 ± 16.8 Zone Units
zone of inhibition (MCF7; 10 μg/DISK): 183.0 ± 10.8 Zone Units
zone of inhibition (MCF7; 100 μg/DISK): 320.5 ± 21.5 Zone Units
IC50 (T47D): 11.8 µM
activity and specificity in words (tumor cell lines): most active; also recorded: Specificity for breast cancer

IC50 (SKOV3): 1.27 µM
IC50 (T47D): 2.25 µM
SMILES: COC(=O)[C@@H]1CC2=C(C(=O)c3c(cc4ccccc4c3O)C2=O)[C@@H](O[C@H]2C[C@H](NC(=O)C(F)(F)F)[C@H](O)[C@H](C)O2)O1 [BCH-691, (1'S,1R,3S)-Methyl-{11-hydroxy-1-(2',3',6'-trideoxy-3'-trifluoroacetamido-4'-hydroxy-L-lyxoheoxpyranose)-5,12-dioxo-3,4,5,12-tetrahydroanthraceno[2,3-c]pyran-3-yl}formate]
zone of inhibition (LS180; 10 μg/DISK): 148.5 ± 4.9 Zone Units
zone of inhibition (LS180; 100 μg/DISK): 287.0 ± 80.3 Zone Units
zone of inhibition (MCF7/ADR; 10 μg/DISK): 115.5 ± 9.1 Zone Units
zone of inhibition (MCF7/ADR; 100 μg/DISK): 213.5 ± 43.1 Zone Units
zone of inhibition (MCF7; 10 μg/DISK): 186.5 ± 4.9 Zone Units
zone of inhibition (MCF7; 100 μg/DISK): 417.5 ± 99.7 Zone Units
activity and specificity in words (tumor cell lines): most active; also recorded: Good broad spectrum activity

IC50 (SKOV3): 2.84 µM
IC50 (T47D): 71 µM
SMILES: COC(=O)[C@H]1CC2=C(C(=O)c3c(cc4ccccc4c3O)C2=O)[C@H](O[C@H]2C[C@H](NC(=O)C(F)(F)F)[C@H](O)[C@H](C)O2)O1 (mixture of isomers) [BCH-692, (1'S,1S,3R) and (1'S,1R,3S) Methyl[11-hydroxy-1-(2',3',6'-trideoxy-3'-trifluoroacetamido-4'-hydroxy-L-lyxohexopyranose)-5,12-dioxo-3,4,5,12-tetrahydro-anthraceno[2,3-c]pyran-3-yl]formate]
zone of inhibition (LS180; 10 μg/DISK): 130.0 ± 12.5 Zone Units
zone of inhibition (LS180; 100 μg/DISK): 250.0 ± 8.4 Zone Units
cross resistance with adriamycin, MCF7/ADR vs MCF7 (MCF7/ADR): lack of cross resistance with adriamycin
zone of inhibition (MCF7/ADR; 10 μg/DISK): 122.0 ± 10.0 Zone Units
zone of inhibition (MCF7/ADR; 100 μg/DISK): 237.9 ± 8.6 Zone Units
zone of inhibition (MCF7; 10 μg/DISK): 131.0 ± 12.7 Zone Units
zone of inhibition (MCF7; 100 μg/DISK): 289.5 ± 22.0 Zone Units
activity and specificity in words (tumor cell lines): most active; also recorded: Good broad spectrum activity

IC50 (SKOV3): 4.19 µM
SMILES: CCOC(=O)[C@H]1CC2=C(C(=O)c3cc4ccccc4c(O)c3C2=O)[C@H](O[C@H]2C[C@H](NC(=O)C(F)(F)F)[C@H](O)[C@H](C)O2)O1 [BCH-684, (1'S,1S,3R)Ethyl[6-hydroxy-5,12-dioxo-1-(3'-trifluoroacetamido-1-daunosaminyl)-3,4,5,12-tetrahydroanthraceno(2,3-C)pyran-3-yl]formate]
cross resistance with adriamycin, MCF7/ADR vs MCF7 (MCF7/ADR): more active in the adriamycin resistant cell line
zone of inhibition (MCF7/ADR; 10 μg/DISK): 161.6 ± 30.1 Zone Units
zone of inhibition (MCF7/ADR; 100 μg/DISK): 437.1 ± 30.1 Zone Units
zone of inhibition (MCF7; 10 μg/DISK): 115.9 ± 8.6 Zone Units
zone of inhibition (MCF7; 100 μg/DISK): 225.7 ± 25.8 Zone Units
activity and specificity in words (tumor cell lines): most active; also recorded: Good broad spectrum activity
